Experiment [1] addresses human recombinant dopamine D2S receptor (Homo sapiens, UniProt P14416). In words: Dopamine D2S [35S]GTPγS functional assay (SPA, CHO membranes). The format is biochemical. The settings on record: read-out: D2S GTPgS % Inhibition. As to the method:
To determine for agonist or antagonist activity of compounds of the invention in functional assays, human recombinant dopamine D2S receptor stably expressed in Chinese hamster ovary (CHO) cells (Gilliland S L and Alper R H. Naunyn-Schmiedeberg's Archives of Pharmacology. 361: 498, 2000) was used. Compounds of invention were pre-incubated with the membranes (0.05 mg/mL) and 3 µM GDP in modified HEPES buffer (20 mM HEPES, pH 7.4, 100 mM NaCl, 10 mM MgCl2, 1 mM DTT, 1 mM EDTA) for 20 min. and Scintillation Proximity Assay (SPA) beads were then added for another 60 min. at 30° C. The reaction was initiated by 0.3 nM [^35S]GTPγS for an additional 30 min. incubation period. […] Compounds were screened at […] or lower, using 0.4% DMSO as vehicle. Assay results are presented as the percent response of specific binding in Table 13.

In experiment [2] the target is T1, human recombinant serotonin 5-HT1B receptor (Homo sapiens, UniProt P28222).
T1 construct: expressed in transfected cells; host or cells: CHO-K1 cell line, membrane extracts
T1 sequence (P28222 whole entry): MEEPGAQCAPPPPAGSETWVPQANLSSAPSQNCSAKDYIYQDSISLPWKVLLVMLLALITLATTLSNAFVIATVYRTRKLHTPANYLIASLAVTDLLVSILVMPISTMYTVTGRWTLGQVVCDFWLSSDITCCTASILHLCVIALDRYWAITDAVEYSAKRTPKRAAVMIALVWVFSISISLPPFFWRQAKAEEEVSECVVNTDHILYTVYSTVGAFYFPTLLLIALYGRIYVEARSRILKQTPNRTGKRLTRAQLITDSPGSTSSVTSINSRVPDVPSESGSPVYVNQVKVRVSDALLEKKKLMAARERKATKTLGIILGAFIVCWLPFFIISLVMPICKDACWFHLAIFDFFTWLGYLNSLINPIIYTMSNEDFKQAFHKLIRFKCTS
In words: 5-HT1B radioligand binding competition assay ([3H]5-CT, CHO-K1 membranes). As to conditions: 5 μM, in duplicate, average. The protocol:
To determine the binding activity at the human recombinant serotonin 5-HT1B receptor of compounds of the invention, CHO-K1 cell line expressing the human 5-HT1B recombinant receptor was amplified to prepare membranes used for the radioligand binding assay throughout the study. Radioligand binding competition on 5-HT1B was performed by adding successively in the wells of a 96 well plate (Master Block, Greiner, 786201). […] The plate was incubated 60 min at 25° C. in a water bath and then filtered over GF/B filters (Perkin Elmer, 6005177, presoaked in 0.5% PE1 for 2 h at room temperature) with a Filtration unit (Perkin Elmer). The filters were washed 3× with 0.5 mL of ice-cold washing buffer (50 mM Tris pH 7.4). 50 μL Microscint 20 (Packard) was added and the plate was incubated 15 min on an orbital shaker and then counted with a TopCount™ for 1 min/well.
The reference value thus obtained for the test was compared to a historical value obtained from the same receptor and used to validate the experimental session. […] For replicate determinations, the maximum variability tolerated in the test was of +/−20% around the average of the replicates.
Compounds were tested for binding activity in the radioligand binding competition assay on human 5-HT1B receptor, at one concentration […], in duplicate. Dose-response data from test compounds were analyzed with XLfit (IDBS) software using nonlinear regression applied to a sigmoidal dose-response model.
Dose-response data was analyzed with XLfit (IDBS) software using non-linear regression applied to a sigmoidal dose-response model.

Chain of human recombinant dopamine D2S receptor (P14416 1-414 isoform P14416-2): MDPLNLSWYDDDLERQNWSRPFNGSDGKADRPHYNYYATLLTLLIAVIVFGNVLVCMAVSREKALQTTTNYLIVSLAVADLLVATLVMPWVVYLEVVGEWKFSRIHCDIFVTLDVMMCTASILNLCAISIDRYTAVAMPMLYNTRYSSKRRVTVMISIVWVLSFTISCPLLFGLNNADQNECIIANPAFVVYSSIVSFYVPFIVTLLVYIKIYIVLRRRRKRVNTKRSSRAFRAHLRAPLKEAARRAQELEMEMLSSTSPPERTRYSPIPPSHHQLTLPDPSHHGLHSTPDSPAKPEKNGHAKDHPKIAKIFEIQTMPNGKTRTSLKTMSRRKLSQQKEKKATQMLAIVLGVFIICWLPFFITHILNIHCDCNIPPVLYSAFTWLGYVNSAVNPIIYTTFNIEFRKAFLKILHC

`C/C(=C\n1c2c(c3cc(Cl)ccc31)CN(C)CC2)c1ccc(F)cc1` [Compound 83, (E)-8-chloro-5-(2-(4-fluorophenyl)prop-1-enyl)-2,3,4,5-tetrahydro-2-methyl-1H-pyrido[4,3-b]indole]: the inhibition at 0.001 µM in experiment [1] (conc. 1 nM) is 15%. For the same compound, in experiment [1] (conc. 3 nM), the inhibition at 0.003 µM amounted to 45%. Further, the inhibition at 0.01 µM in experiment [1] (conc. 10 nM) was found to be 56%. Moreover, the inhibition at 0.03 µM in experiment [1] (conc. 30 nM) was found to be 74%. Moreover, the inhibition at 0.1 µM in experiment [1] (conc. 100 nM) was found to be 91%.
With `COc1ccc(C(C)(O)Cn2c3c(c4cc(C)ccc42)CN(C)CC3)cc1` (stereo not drawn) [Compound 174, 1-(2,8-dimethyl-3,4-dihydro-1H-pyrido[4,3-b]indol-5(2H)-yl)-2-(4-methoxyphenyl)propan-2-ol], the “5-HT1B (5 μM) % Binding relative to bound radioligand” value in experiment [2] stood at 16%.

Values taken from patent publication US8906925B2, “Pyrido[4,3-B]indoles containing rigid moieties” (Medivation Technologies, Inc., priority 2008, dated 2014).
